Data as given in US11779664B2, “Targeted contrast agents for MRI of alpha-synuclein deposition” (Texas Children's Hospital, priority 2020, dated 2023).
“Also recorded” adds a separate entry of the source.

Key:
[1] = biological target: T1, α-syn pathology (Lewy pathology) in human PD brain tissue (Homo sapiens, UniProt P37840); experiment: Fluorescent staining of post-mortem human PD brain tissue sections; conditions: frontal cortex sections, co-stained with Syn211 or Syn303, confocal microscopy
T1 construct: tissue NIH Neurobiobank; host or cells: post-mortem human PD brain sections (frontal cortex, pons)
Protocol: Sections from the pons and frontal-cortex of the PD brain were permeabilized and treated sequentially with antibody [Anti-alpha-Synuclein (aa 121-125) Antibody, clone Syn 211] and 1 μM solution of each compound and visualized by confocal microscopy. […] Column II depicts ligand fluorescence. Column III depicts fluorescence from the antibody. Column IV is a composite image created by merging the first three images. […] The pattern and labeling intensity appear similar in the antibody channel. […] In up close Z-stacked images of the treated tissue (Row C), the pathology appears to surround dark holes (arrows) in the ligand and antibody channels.
To further characterize the sites labeled by the ligands and antibody Syn211 tissue staining experiments, contiguous cortical sections were treated with compound 8 and then either Syn211 or Syn303. As expected, the sections treated with compound 8 and Syn211 (FIG. 17, first row) show identical ligand and antibody labeling patterns that colocalize in the composite image. Both the ligand and antibody appear to label all forms of pathology present on the tissue. […]
Midbrain tissue (Frontal cortex 5469) was embedded with Tissue-Tek O.C.T. Compound and kept in liquid nitrogen for 30 min. […] The tissue was imaged with Lecia DMi8 Motorized Fluorescence Microscope using standard excitation/emission filters for Alexa Fluor 488 or Alexa Fluor 647.

[2] = biological target: T2, α-syn fibrils (Homo sapiens, UniProt P37840); experiment: α-Syn fibril/ligand binding assay (fluorescence saturation binding); conditions: for selectivity for α-syn versus Aβ fibrils (comparison of Kd values): Kd Aβ fibrils vs Kd α-syn fibrils; for Kd: synthetic α-syn fibrils 2.5 μM, PBS, 37° C., 1 h
T2 construct: purchased R-peptide S-1001-2
Protocol: To this suspension was added 0.2 mL phosphate buffer (10 mM, pH 7.5). The soluble materials were removed by spinning for 5 min in a centrifuge (18000 g/s). The process was repeated four times. After the fourth time, the peptide was transferred into a microtube (200 μl), and 2.5 μl of 300 mM MnCl (made in water) was added. […] The fibrils formed were spun down at 21,000 g/s for 6 min. The supernatant was discarded, and the fibril pellet was resuspended in 200 μl PBS buffer (pH=7.4).
The mixture was incubated at 37° C. for 1 h with shaking. The mixture was spun down at 21,000 g/s for 15 min to separate the fibrils. The precipitate was washed twice with Tris-HCl and resuspended in 200 μL buffer. […] All data points were performed in triplicate. The Kd and the maximal number of binding sites (Bmax) values were determined by fitting the data to the equation Y=Bmax×X/(X+Kd) by nonlinear regression using MATLAB software (R2019B).

[3] = test system: β-amyloid plaques in human AD brain tissue; experiment: Fluorescent staining of post-mortem human AD brain tissue sections; conditions: cortical sections, co-stained with 4G8 antibody
Description: To assess the observed selectivity in α-syn versus Aβ fibril binding on aggregates in human tissue, equimolar concentrations of ligands 8, 32, and 37 were further evaluated on PD tissue as described above, alongside cortical sections from neuropathologically verified post-mortem brain samples of AD patients. […] A similar labeling pattern and efficiency are observed in the antibody channel (column III). […] The antibody, anti-β-Amyloid, 17-24 Antibody (4G8), highlights both dense core and diffuse Aβ pathology (column III).
Midbrain tissue (Frontal cortex 5590) was embedded with Tissue-Tek O.C.T. Compound and kept in liquid nitrogen for 30 mins. The embedded tissue was sliced into 30 μm thick sections with Lecia Biosystems Cryostats under −20° C. and mounted onto Precleaned Microscope Slides. The section was washed with 1× PBST two times and then loaded into 10% formalin solution for 20 mins. The section was washed with 1× PBS three times and permeabilized with 0.1% Triton-X 100 for 10 min. The section was washed with 1× PBS two times and incubated with 2% normal Donkey serum at room temperature for 1 h. […] The tissue was imaged with Lecia DMi8 Motorized Fluorescence Microscope using standard excitation/emission filters for Alexa Fluor 488 or Alexa Fluor 647.

SMILES | labeling of Lewy pathology in PD brain sections [1] | selectivity for α-syn versus Aβ fibrils (comparison of Kd values) [2] [fold] | Kd [2] [nM] | labeling of Aβ pathology in AD brain sections [3]
O=C(O)c1ccc(-c2ccc(/C=C/C=C3\Cc4ccc(O)cc4C3=O)cc2)cc1 [compound 32, 4′-((E)-3-((E)-6-Hydroxy-1-oxo-1,3-dihydro-2H-inden-2-ylidene)prop-1-en-1-yl)-[1,1′-biphenyl]-4-carboxylic acid] | avid labeling of Lewy pathology | 26 | 18.8 | 
COc1cc(/C=C/C=C2\Cc3ccccc3C2=O)ccc1O [compound 8, (E)-2-((E)-3-(4-Hydroxy-3-methoxyphenyl)allylidene)-2,3-dihydro-1H-inden-1-one] | avidly labels Lewy pathology; also recorded: labels all conformations of the pathology; also recorded: avid labeling of both large and fine deposits of the pathology | 14.4 | 9.7 | mostly dense core Aβ plaques
